# Activity calls are given as the source filed them. The calls are words filed in the database; no cut-off is given here.
# What was measured:
# [1] = Selectivity index, ratio of IC50 for cytotoxicity against human HaCaT cells to IC50 for cytotoxicity against human PC-3 cells; type: toxicity, cell-based; details: HaCaT cells versus PC-3 cells, read-out: Ratio IC50
# Escherichia coli = experiment: Antimicrobial activity against Escherichia coli ATCC 25922 incubated for 18 hrs by twofold microdilution method; type: functional
# MDA-MB-231 [2] = experiment: Induction of apoptosis in human MDA-MB-231 cells assessed as late apoptotic cells at IC50 incubated for 72 hrs by Annexin V-FITC staining based flow cytometry analysis (reference value: 3.07 %); type: functional
# SW-620 = experiment: Cytotoxicity against human SW620 cells incubated for 72 hrs by MTT assay; type: functional, cell-based; details: SW-620, 72 h
# A549 [3] = experiment: Induction of mitochondrial respiration in human A549 cells assessed as increase in oxygen consumption rate by Oxygraph-2K system; type: functional, cell-based
# Pseudomonas aeruginosa = experiment: Antimicrobial activity against Pseudomonas aeruginosa ATCC 15442 incubated for 18 hrs by twofold microdilution method; type: functional
# [4] = tested on: Staphylococcus epidermidis; experiment: Antimicrobial activity against Staphylococcus epidermidis ATCC 35984 incubated for 18 hrs by twofold microdilution method; type: functional
# Staphylococcus aureus [5] = experiment: Antimicrobial activity against Staphylococcus aureus ATCC 6538 incubated for 18 hrs by twofold microdilution method; type: functional
# MDA-MB-231 [6] = experiment: Effect on mitochondrial function in human MDA-MB-231 cells assessed as fold increase in mean fluorescence intensity at IC50 incubated for 48 hrs by MitoTracker Red CMXRos staining based flow cytometry analysis relative to control; type: functional
# A549 [7] = experiment: Induction of ROS generation of human A549 cells assessed as fold increase at IC50 incubated for 6 hrs by CellROX Green staining based spectrofluorometer analysis relative to control; type: functional
# Mitochondrial membrane [8] = experiment: Induction of mitochondrial membrane potential loss in human MDA-MB-231 cells assessed as red fluorescence at IC50 incubated for 48 hrs MitoTrackerRed CMXRos staining based flow cytometry analysis (reference value: 91.1 %); type: cell membranes
# MDA-MB-231 [9] = experiment: Induction of cell cycle arrest in human […] cells assessed as accumulation of cells at G0/G1 phase at IC50 incubated for 24 hrs by propidium iodide staining based flow cytometry analysis (reference value: 50.9 %); type: functional
# Staphylococcus aureus [10] = experiment: Antimicrobial activity against Staphylococcus aureus NCTC 4163 incubated for 18 hrs by twofold microdilution method; type: functional
# A549 [11] = experiment: Effect on mitochondrial mass in human A549 cells assessed as increase in MTGreen positive cells at IC50 incubated for 48 hrs by MitoTracker Green FM staining based flow cytometry analysis relative to control; type: functional
# MDA-MB-231 [12] = experiment: Induction of apoptosis in human MDA-MB-231 cells assessed as necrotic cells at IC50 incubated for 72 hrs by Annexin V-FITC staining based flow cytometry analysis (reference value: 1.17 %); type: functional
# A549 [13] = experiment: Induction of cell cycle arrest in human A549 cells assessed as accumulation of cells at G0/G1 phase at IC50 incubated for 24 hrs by propidium iodide staining based flow cytometry analysis (reference value: 54.3 %); type: functional
# Mitochondrial membrane [14] = experiment: Induction of mitochondrial membrane potential loss in human A549 cells assessed as red fluorescence at IC50 incubated for 48 hrs MitoTrackerRed CMXRos staining based flow cytometry analysis (reference value: 91.1 %); type: cell membranes
# [15] = Selectivity index, ratio of IC50 for cytotoxicity against chinese hamster V79 cells to IC50 for cytotoxicity against human PC-3 cells; type: toxicity, cell-based; details: V79 cells versus PC-3 cells, read-out: Ratio IC50
# MDA-MB-231 [16] = experiment: Induction of cell cycle arrest in human […] cells assessed as accumulation of cells at G2 phase at IC50 incubated for 24 hrs by propidium iodide staining based flow cytometry analysis; type: functional
# Lipid bilayer [17] = experiment: Induction of ionic transport in azolectin bilayer membrane assessed as specific channel-like structure formation in presence of HEPES buffer by electrophysiology technique
# Lipid bilayer [18] = experiment: Induction of ionic transport in azolectin bilayer membrane assessed as irregular disturbance in membrane permeability in presence of HEPES buffer by electrophysiology technique
# Lipid bilayer [19] = experiment: Induction of ionic transport in azolectin bilayer membrane assessed as membrane rupture in presence of HEPES buffer by electrophysiology technique
# A549 [20] = experiment: Induction of mitochondrial respiration in human A549 cells assessed as increase in oxygen consumption rate upto 10 uM by Oxygraph-2K system; type: functional, cell-based
# Lipid bilayer [21] = experiment: Induction of current generation in azolectin bilayer membrane in presence of HEPES buffer by electrophysiology technique
Structure (SMILES),selectivity ratio [1],MIC (Escherichia coli),Activity (MDA-MB-231 [2]),IC50 (SW-620),MIC (Pseudomonas aeruginosa),MIC [4],MIC (Staphylococcus aureus [5]),fold change (FC) (MDA-MB-231 [6]),fold change (FC) (A549 [7]),Activity (Mitochondrial membrane [8]),Activity (MDA-MB-231 [9]),MIC (Staphylococcus aureus [10]),Activity (A549 [11]),Activity (MDA-MB-231 [12]),Activity (A549 [13]),Activity (Mitochondrial membrane [14]),selectivity ratio [15],Activity (MDA-MB-231 [16]),also measured
CCCC[P+](CCCC)(CCCC)CCCCOC(=O)[C@H](CC)[C@H]1CC[C@H](C)[C@H]([C@@H](C)[C@H](O)[C@H](C)C(=O)[C@H](CC)[C@H]2O[C@]3(C=C[C@@H](O)[C@]4(CC[C@@](C)([C@H]5CC[C@](O)(CC)[C@H](C)O5)O4)O3)[C@H](C)C[C@@H]2C)O1.[Br-],0.5,> 256 µg/mL,21.8%,520 nM,> 256 µg/mL,2 µg/mL,2 µg/mL,5,2,29.4%,76.2%,2 µg/mL,70%,5.15%,Active,67.3%,0.4,inactive,Activity (A549 [3]): Active; Small Increase In Oxygen Consumption Rate Was Observed
CC[C@@H](C(=O)[C@@H](C)[C@@H](O)[C@H](C)[C@@H]1O[C@@H]([C@@H](CC)C(=O)OCCCC[P+](c2ccccc2)(c2ccccc2)c2ccccc2)CC[C@@H]1C)[C@H]1O[C@]2(C=C[C@@H](O)[C@]3(CC[C@@](C)([C@H]4CC[C@](O)(CC)[C@H](C)O4)O3)O2)[C@H](C)C[C@@H]1C.[Br-],0.9,256 µg/mL,15.32%,140 nM,256 µg/mL,1 µg/mL,1 µg/mL,3,2,39.1%,77.7%,2 µg/mL,70%,5.23%,68.5%,58.3%,0.1,inactive,Activity (Lipid bilayer [17]): inactive; Activity (Lipid bilayer [18]): inactive; Activity (Lipid bilayer [19]): inactive; Activity (A549 [20]): Active; Activity (Lipid bilayer [21]): Dose-dependent-effect

# From ChEMBL document CHEMBL6120978, “Anticancer activity of salinomycin quaternary phosphonium salts” (Eur J Med Chem, 2025)
